Test results: ChEMBL document CHEMBL1127582, “Novel 3 alpha-(diphenylmethoxy)tropane analogs: potent dopamine uptake inhibitors without cocaine-like behavioral profiles” (J Med Chem, 1994)

What was measured:
[1] = biological target: Sodium-dependent dopamine transporter (Rattus norvegicus, UniProt P23977); test: Compound was evaluated for its ability to displace [3H]WIN-35428 binding in rat caudate-putamen; assay type: tissue-based
[2] = species on record: Rattus norvegicus; test: Compound was evaluated for its ability to block the [3H]-Dopamine uptake in rat caudate-putamen; assay type: functional, organism-based

Sequence of Sodium-dependent dopamine transporter (P23977 whole entry): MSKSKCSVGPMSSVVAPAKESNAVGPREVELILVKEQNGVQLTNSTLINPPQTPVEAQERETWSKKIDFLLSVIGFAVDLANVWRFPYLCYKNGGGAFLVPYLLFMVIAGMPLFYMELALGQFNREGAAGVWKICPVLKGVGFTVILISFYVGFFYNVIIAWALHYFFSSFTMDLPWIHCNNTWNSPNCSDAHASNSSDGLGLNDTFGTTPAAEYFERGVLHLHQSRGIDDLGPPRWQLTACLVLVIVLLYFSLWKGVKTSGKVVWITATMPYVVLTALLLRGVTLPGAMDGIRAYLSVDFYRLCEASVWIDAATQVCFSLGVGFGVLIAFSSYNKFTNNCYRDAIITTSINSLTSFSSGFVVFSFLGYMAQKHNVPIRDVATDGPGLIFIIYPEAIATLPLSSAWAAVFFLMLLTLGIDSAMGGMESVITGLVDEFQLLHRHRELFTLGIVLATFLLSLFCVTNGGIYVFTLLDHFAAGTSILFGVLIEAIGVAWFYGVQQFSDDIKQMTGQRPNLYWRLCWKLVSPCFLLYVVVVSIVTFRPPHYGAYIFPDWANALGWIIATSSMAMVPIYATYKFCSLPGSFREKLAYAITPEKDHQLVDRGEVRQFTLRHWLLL

| SMILES | Ki [1] | IC50 [2] |
| --- | --- | --- |
| COc1ccc(C(OC2CC3CCC(C2)N3C)c2ccccc2)cc1 (centres undefined) | 78.4 nM | 468 nM |
| CN1C2CCC1CC(OC(c1ccccc1)c1ccc(Cl)cc1)C2 (centres undefined) | 854 nM | 3520 nM |
| Fc1ccc(C(OCCN2CCN(CCCc3ccccc3)CC2)c2ccc(F)cc2)cc1 [VANOXERINE] | – | 5 nM |
| COc1ccc(C(OC2CC3CCC(C2)N3C)c2ccc(OC)cc2)cc1 (centres undefined) | 2000 nM | 2880 nM |
| CN1[C@@H]2CC[C@H]1C[C@@H](OC(c1ccccc1)c1ccc(Cl)cc1)C2 (some centres undefined) | 30 nM | 115 nM |
